13 molecules from patent publication US20240025903A1, “Bicyclic Compounds and Uses Thereof for the Treatment of Diseases” (Athira Pharma, Inc., priority 2020, published 2024) can be followed below.

Data set [1] deals with MDCK cells. Description: Cell scattering behavior assay. The class given is cell-based. Also on record: key: − indicates that the compound failed to significantly promote cell scattering behavior; + indicates maximum potency at or above 100 nM; ++ indicates maximum potency at or above 10 nM; +++ indicates maximum potency at or above 1 nM; ++++ indicates maximum potency at or above 0.1 nM. As to conditions: 5 ng/mL HGF, 24 hours, normalized particle count vs HGF alone. The gist of the method: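 MDCK cells starved 2 h in serum-free DMEM, then treated 24 h at 37 °C with compounds plus 5 ng/mL HGF. Cells were ethanol-fixed, WGA488-stained and imaged. Scattering was scored as particle count normalized to stained area, with activity taken as a statistical increase in normalized particle count over HGF alone.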

Data set [2] deals with T1, HGF/MET system (Homo sapiens, UniProt P08581+P14210).
T1 construct: HEK293 cells were prepared by passage into 6-well multi-plates; endogenous in cells; host or cells: HEK293
Put plainly: Phospho-MET ELISA. Particulars: HEK293 cells, 1 ng/mL recombinant HGF, 15 minutes, pMET ELISA. It counts as cell-based. The gist of the method: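 Serum-starved (≥8 h) HEK293 cells treated with compound plus 1 ng/mL recombinant HGF for 15 min at 37° C in triplicate, then lysed in RIPA. Equal protein (50–100 μg, BCA-normalized) run in pMET sandwich ELISA, A450 read. Responses scaled 1–10 between 1 ng/mL and 10 ng/mL HGF means, using peak efficacy.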

A short description of data set [3]: Turbidimetric solubility assay. Particulars: PBS, 37° C., absorbance 620 nm; for solubility at 2 h: aqueous buffer, kinetic from dmso stock. It counts as physicochemical.
The test system of data set [4] is HepG2 cells. Put plainly: Cytotoxicity assay (LDH release). The class given is cell-based. Particulars: 48 hours, 0.1 to 100 μM. The method, then: This experiment was designed to obtain a preliminary assessment of cytotoxicity.
HepG2 cells were plated in 96-well cell culture plates and allowed to attach overnight at 37° C., 5% CO2 in EMEM+10% FBS. Treatments were made in complete media (EMEM+10% FBS) and included a dilution series of test compounds from 0.1 to 100 μM. Known cytotoxin cerivastatin was used as a positive assay control and prepared at a final concentration of 0.5 μM.
Growth media was replaced with treatment media (EMEM+10% FBS containing test compound dissolved in DMSO) and cells were incubated with test compounds for 48 hours. At the end of the incubation period, supernatant media from each well was transferred to a new plate and LDH assay working solution was added. LDH assay solution undergoes a colorimetric reaction in proportion to the amount of lactate dehydrogenase (an intracellular protein that was only found in the media in the presence of lysed cells) in the media. Color reaction was quantified by measurement of absorbance at a wavelength of 490 nm.
The signal range of the assay was determined by no manipulation in a negative control treatment and full lysis of all cells in a lysis control sample. Compounds that increase the level of cytotoxicity more than 20% above negative control samples were considered cytotoxic in this assay.

T1 sequence (P08581 308-1390 limits assumed): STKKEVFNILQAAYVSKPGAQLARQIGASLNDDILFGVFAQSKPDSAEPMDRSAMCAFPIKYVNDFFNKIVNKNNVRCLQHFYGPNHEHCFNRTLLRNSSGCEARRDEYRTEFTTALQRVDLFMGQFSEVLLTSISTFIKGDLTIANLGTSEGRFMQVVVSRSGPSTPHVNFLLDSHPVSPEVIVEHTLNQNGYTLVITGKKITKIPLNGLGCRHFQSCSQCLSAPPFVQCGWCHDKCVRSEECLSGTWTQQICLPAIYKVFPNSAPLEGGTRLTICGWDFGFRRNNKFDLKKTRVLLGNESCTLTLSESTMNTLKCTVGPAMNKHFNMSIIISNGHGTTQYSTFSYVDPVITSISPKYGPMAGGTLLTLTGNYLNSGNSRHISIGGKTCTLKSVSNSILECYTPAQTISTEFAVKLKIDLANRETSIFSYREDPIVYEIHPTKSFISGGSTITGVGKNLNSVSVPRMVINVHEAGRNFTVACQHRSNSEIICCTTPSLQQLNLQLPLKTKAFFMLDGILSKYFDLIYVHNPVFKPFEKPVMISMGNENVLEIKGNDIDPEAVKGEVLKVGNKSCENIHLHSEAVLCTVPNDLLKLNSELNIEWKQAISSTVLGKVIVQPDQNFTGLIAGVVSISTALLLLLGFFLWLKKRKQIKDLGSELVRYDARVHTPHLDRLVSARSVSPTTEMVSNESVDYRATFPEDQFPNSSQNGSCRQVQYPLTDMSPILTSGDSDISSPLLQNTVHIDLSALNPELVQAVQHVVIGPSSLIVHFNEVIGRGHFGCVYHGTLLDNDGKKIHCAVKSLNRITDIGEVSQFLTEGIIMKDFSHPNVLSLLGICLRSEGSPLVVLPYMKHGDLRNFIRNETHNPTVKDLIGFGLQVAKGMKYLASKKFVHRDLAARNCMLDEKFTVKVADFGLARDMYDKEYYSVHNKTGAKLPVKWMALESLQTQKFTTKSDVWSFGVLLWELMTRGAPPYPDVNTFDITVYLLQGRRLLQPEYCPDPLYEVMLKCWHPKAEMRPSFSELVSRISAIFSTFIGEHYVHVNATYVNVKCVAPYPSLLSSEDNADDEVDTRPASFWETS
T1 sequence (P14210 32-494 limits assumed): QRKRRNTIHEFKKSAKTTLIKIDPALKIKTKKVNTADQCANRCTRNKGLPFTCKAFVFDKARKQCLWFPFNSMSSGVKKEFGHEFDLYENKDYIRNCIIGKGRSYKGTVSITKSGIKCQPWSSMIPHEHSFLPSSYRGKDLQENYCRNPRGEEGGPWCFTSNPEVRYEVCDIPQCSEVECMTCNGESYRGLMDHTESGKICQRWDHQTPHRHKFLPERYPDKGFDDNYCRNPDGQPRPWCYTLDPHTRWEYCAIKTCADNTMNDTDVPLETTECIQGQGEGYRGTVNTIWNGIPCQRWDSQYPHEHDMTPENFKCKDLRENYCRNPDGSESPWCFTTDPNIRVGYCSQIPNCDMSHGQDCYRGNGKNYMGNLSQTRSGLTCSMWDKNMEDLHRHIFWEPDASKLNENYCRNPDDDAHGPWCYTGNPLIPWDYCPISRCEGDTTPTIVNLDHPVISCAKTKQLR

`CCC(C)CN1CC2N(C(=O)c3ccc(C(F)(F)F)cc3)CCC(=O)N2[C@@H](C)C1=O` (some centres unmarked) [Compound 1a]: the “Potency (cell scattering)” value in data set [1] is given as “++++ (++++ indicates maximum potency at or above 0.1 nM)”. Also, the “Potency (augmentation of MET phosphorylation)” value in data set [2] is “++++ (++++ indicates maximum potency at or above 0.1 nM)”. The same molecule came in with a solubility at 2 h in data set [3] of over 300 µM. Moreover, the Cytotoxicity result in data set [4] was “++++ (++++ indicates non-toxic at 100 μM)”.

On to `CCC(C)CN1CC2N(C(=O)c3ccc(OC(F)F)cc3)CCC(=O)N2[C@@H](C)C1=O` (some centres unmarked) [Compound 2a], for which the “Potency (cell scattering)” value in data set [1] is on record as “+ (+ indicates maximum potency at or above 100 nM)”. For the same molecule, the “Potency (augmentation of MET phosphorylation)” value in data set [2] was “++ (++ indicates maximum potency at or above 10 nM)”. In addition, in data set [3], the solubility at 2 h was over 300 µM. Further, the Cytotoxicity result in data set [4] was “++++ (++++ indicates non-toxic at 100 μM)”.

In the case of `CCC(C)CN1CC2N(Cc3ccc(C(F)(F)F)cc3)CCC(=O)N2[C@@H](C)C1=O` (some centres unmarked) [Compound 5a], in data set [1], the “Potency (cell scattering)” value was “++++ (++++ indicates maximum potency at or above 0.1 nM)”. Moreover, in data set [2], the “Potency (augmentation of MET phosphorylation)” value is “+ (+ indicates maximum potency at or above 100 nM)”. The same molecule came in with a solubility at 2 h in data set [3] of over 300 µM. For the same molecule, the Cytotoxicity result in data set [4] is given as “++++ (++++ indicates non-toxic at 100 μM)”.

As for `CCC(C)CN1CC2N(Cc3ccc(OC(F)F)cc3)CCC(=O)N2[C@@H](C)C1=O` (some centres unmarked) [Compound 6a], in data set [1], the “Potency (cell scattering)” value is on record as “+++ (+++ indicates maximum potency at or above 1 nM)”. Besides, the “Potency (augmentation of MET phosphorylation)” value in data set [2] is listed as “+ (+ indicates maximum potency at or above 100 nM)”. Besides, in data set [3], the solubility at 2 h was over 300 µM. The Cytotoxicity entry in data set [4] is listed as “++++ (++++ indicates non-toxic at 100 μM)”.

In the case of `CCC(C)CN1CC2N(Cc3ccc(O)nc3)CCC(=O)N2[C@@H](C)C1=O` (some centres unmarked) [Compound 7a], the “Potency (cell scattering)” value in data set [1] is “++ (++ indicates maximum potency at or above 10 nM)”. Besides, the “Potency (augmentation of MET phosphorylation)” value in data set [2] is listed as “++ (++ indicates maximum potency at or above 10 nM)”. The solubility at 2 h in data set [3] is over 300 µM. In data set [4], the Cytotoxicity result is listed as “++++ (++++ indicates non-toxic at 100 μM)”.

`CCC(C)CN1CC2N(C(=O)c3ccc(O)cc3)CCC(=O)N2[C@@H](C)C1=O` (some centres unmarked) [Compound 8a]: the “Potency (cell scattering)” value in data set [1] is “+++ (+++ indicates maximum potency at or above 1 nM)”. Also, the “Potency (augmentation of MET phosphorylation)” value in data set [2] is recorded as “+ (+ indicates maximum potency at or above 100 nM)”. Moreover, the Solubility entry in data set [3] (2 hours) was “++++ (++++ indicates solubility at 300 μM)”. Also, in data set [4], the Cytotoxicity result is on record as “++++ (++++ indicates non-toxic at 100 μM)”.

For `CCC(C)CN1CC2N(C(=O)c3ccc(F)cc3)CCC(=O)N2C(C)C1=O` (centres unmarked) [Compound 11, 1-(4-fluorobenzoyl)-6-methyl-8-(2-methylbutyl)hexahydro-4H-pyrazino[1,2-a]pyrimidine-4,7(6H)-dione], the “Potency (cell scattering)” value in data set [1] is reported as “++ (++ indicates maximum potency at or above 10 nM)”. The “Potency (augmentation of MET phosphorylation)” value in data set [2] was “+++ (+++ indicates maximum potency at or above 1 nM)”. The solubility at 2 h in data set [3] was over 300 µM. The Cytotoxicity result in data set [4] was “++++ (++++ indicates non-toxic at 100 μM)”.

Regarding `CCC(C)CN1CC2N(C(=O)c3ccc(C(F)(F)F)c(Cl)c3)CCC(=O)N2C(C)C1=O` (centres unmarked) [Compound 12, 1-(3-chloro-4-(trifluoromethyl)benzoyl)-6-methyl-8-(2-methylbutyl)hexahydro-4H-pyrazino[1,2-a]pyrimidine-4,7(6H)-dione], the “Potency (cell scattering)” value in data set [1] is given as “++ (++ indicates maximum potency at or above 10 nM)”. In addition, the “Potency (augmentation of MET phosphorylation)” value in data set [2] is “++ (++ indicates maximum potency at or above 10 nM)”. Further, the solubility at 2 h in data set [3] is over 300 µM. Besides, in data set [4], the Cytotoxicity result is recorded as “++++ (++++ indicates non-toxic at 100 μM)”.

The molecule `CC1C(=O)N(CC2CCC2)CC2N(C(=O)c3ccc(OC(F)F)cc3)CCC(=O)N12` (centres unmarked) [Compound 14] yielded a solubility at 2 h in data set [3] of over 300 µM. In data set [4], the Cytotoxicity result is “++++ (++++ indicates non-toxic at 100 μM)”.

With `CCCCN1CC2N(C(=O)c3ccc(OC(F)F)cc3)CCC(=O)N2C(C)C1=O` (centres unmarked) [Compound 17], the “Potency (cell scattering)” value in data set [1] is recorded as “−”. Also, in data set [2], the “Potency (augmentation of MET phosphorylation)” value is listed as “+++ (+++ indicates maximum potency at or above 1 nM)”. In data set [3], this molecule returned a solubility at 2 h of over 300 µM. Further, the Cytotoxicity result in data set [4] is “++++ (++++ indicates non-toxic at 100 μM)”.

For `CC1C(=O)N(CCC2CCCC2)CC2N(C(=O)c3ccc(C(F)(F)F)cc3)CCC(=O)N12` (centres unmarked) [Compound 19], in data set [1], the “Potency (cell scattering)” value is “+++ (+++ indicates maximum potency at or above 1 nM)”. Also, in data set [2], the “Potency (augmentation of MET phosphorylation)” value was “+++ (+++ indicates maximum potency at or above 1 nM)”. This molecule gave a solubility at 2 h in data set [3] of over 300 µM. Besides, the Cytotoxicity result in data set [4] is “++++ (++++ indicates non-toxic at 100 μM)”.

Regarding `CC1C(=O)N(CCC2CCC2)CC2N(C(=O)c3ccc(C(F)(F)F)cc3)CCC(=O)N12` (centres unmarked) [Compound 20], the “Potency (cell scattering)” value in data set [1] is on record as “+++ (+++ indicates maximum potency at or above 1 nM)”. In addition, the “Potency (augmentation of MET phosphorylation)” value in data set [2] is reported as “+ (+ indicates maximum potency at or above 100 nM)”. The same molecule registered a solubility at 2 h in data set [3] of over 300 µM. Moreover, the Cytotoxicity result in data set [4] is listed as “++++ (++++ indicates non-toxic at 100 μM)”.

For the molecule `C=CCCN1CC2N(C(=O)c3ccc(C(F)(F)F)cc3)CCC(=O)N2C(C)C1=O` (centres unmarked) [Compound 22], the “Potency (cell scattering)” value in data set [1] is “++ (++ indicates maximum potency at or above 10 nM)”. Further, the “Potency (augmentation of MET phosphorylation)” value in data set [2] is “+++ (+++ indicates maximum potency at or above 1 nM)”. The same molecule showed a solubility at 2 h in data set [3] of over 300 µM. The Cytotoxicity entry in data set [4] was “++++ (++++ indicates non-toxic at 100 μM)”.
